Experimental data: BindingDB's records for doi:10.1016/j.ejmech.2019.111807 (Universitat De Barcelona, 2020)

Assay: Bioactivation in CYP1A1 (unknown origin) transfected CHO cells assessed as CYP1A1-mediated drug activation by measuring reduction in cell viability

Row | Structure (SMILES) | IC50 [nM]
1 | CCCCc1c2c(c(C)c3c1C(=O)OC3)Oc1ccccc1O2 | 400
2 | CCCCCCc1c2c(c(C)c3c1C(=O)OC3)Oc1ccccc1O2 | 2600
